Values of other authors, collected in publication PMC6738130 (OncoTargets and therapy, 2019).

What was measured:
tumor = details: 5 nmol/kg SkQ1 per day in drinking water
[1] = driven by mitochondrial inner membrane potential (ΔΨ=140–180 mV)

Question: With `CC1=C(C)C(=O)C(CCCCCCCCCC[P+](c2ccccc2)(c2ccccc2)c2ccccc2)=CC1=O.[Br-]` [SkQ1] as the compound, how does the “Effect on level of ROS and tumor formation” value (tumor) read?
Answer: reduced the level of ROS prevented the formation of a tumor

Question: With `COC1=C(OC)C(=O)C(CCCCCCCCCC[P+](c2ccccc2)(c2ccccc2)c2ccccc2)=C(C)C1=O` [MitoQ, mitoquinone] as the compound, how does the “Accumulation into the mitochondrial matrix” value [1] read?
Answer: several hundred-fold
